Measured values as given in PubChem BioAssay (NCI).
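48-hour exposure; five concentrations; linearly interpolated endpoints. GI50 marks 50% less growth. TGI is the concentration that stops growth completely.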

Tests used:
Assay in all cases: DTP human tumour cell line panel, 48 h
786-0 renal = system: 786-0 renal
MALME-3M melanoma = system: MALME-3M melanoma
NCI-H226 lung = system: NCI-H226 lung
RPMI-8226 leukemia = system: RPMI-8226 leukemia
SK-MEL-28 melanoma = system: SK-MEL-28 melanoma
SNB-19 CNS = system: SNB-19 CNS
TK-10 renal = system: TK-10 renal
UACC-62 melanoma = system: UACC-62 melanoma
HT29 colon = system: HT29 colon
NCI/ADR-RES ovarian = system: NCI/ADR-RES ovarian

SMILES	TGI (786-0 renal) [µM]	TGI (MALME-3M melanoma) [µM]	TGI (NCI-H226 lung) [µM]	TGI (RPMI-8226 leukemia) [µM]	TGI (SK-MEL-28 melanoma) [µM]	TGI (SNB-19 CNS) [µM]	TGI (TK-10 renal) [µM]	TGI (UACC-62 melanoma) [µM]	TGI (HT29 colon) [µM]	TGI (NCI/ADR-RES ovarian) [µM]	GI50 (NCI-H226 lung) [µM]	GI50 (NCI/ADR-RES ovarian) [µM]	GI50 (SK-MEL-28 melanoma) [µM]	GI50 (TK-10 renal) [µM]	GI50 (UACC-62 melanoma) [µM]
c1ccc(OCCSCCCCCCCCCCSCCOc2ccccc2)cc1	> 100	90.4	> 100	> 100	> 100	> 100	> 100	> 100							
O=c1oc2ccc(Cl)cc2cc1-c1cn2ccsc2n1	> 100	> 100		> 100	> 100	> 100	> 100	> 100	> 100	> 100					
Nc1ncc(/C=N/O)c(NCC2(CO)CC(CCc3ccccc3)C2)n1 (stereo not drawn)	37.2	25.3	40.1	42.9				33.1	9.07	70.6					
CO[P@]1(=O)O[C@@H](c2ccccc2)[C@H](O)[C@@]1(O)c1ccccc1	> 100	> 100	> 100		> 100	> 100	> 100	> 100	> 100	> 100					
COC(=O)/C=C/c1ccc2c(c1)CC1(Cc3ccccc3C1)C2	> 100	> 100	> 100	> 100			> 100	> 100	> 100	> 100					
Cc1cn([C@H]2[C@@H](CO)C[C@H]2O)c(=O)[nH]c1=O	> 100	> 100	> 100	> 100	> 100		> 100		> 100	> 100					
O=S1(=O)OCCOS(=O)(=O)C1Cc1nc2ccccc2[nH]1	> 100	> 100		> 100	> 100	> 100	> 100		> 100	> 100					
CC1(C)CCC2(C(=O)OC3OC(CO)C(O)C(O)C3O)CCC3(CO)C(=CCC4C5(C)CC(O)C(O)C(C)(C(=O)OC6OC(CO)C(O)C(O)C6O)C5CCC43C)C2C1 (stereo not drawn)	> 100	> 100	> 100		> 100	> 100	> 100	> 100	> 100	> 100					
O=C(c1ccco1)C1CC(c2ccc3ccccc3c2O)=NN1c1ccc([N+](=O)[O-])cc1[N+](=O)[O-] (stereo not drawn)	> 100	> 100	> 100		> 100		> 100	> 100	42.3	75.4					
CCOC(=O)c1nc2ccccc2nc1NCc1ccc(Cl)cc1Cl	> 100	> 100	> 100	> 100		> 100	> 100	> 100	> 100	> 100					
CCOC(=O)CCCn1cc(C(=O)OC)nn1	> 100	> 100	> 100		> 100	> 100	> 100	> 100	> 100	> 100					
Cc1cc(=O)[nH]c(NNC(C#N)c2ccc([N+](=O)[O-])cc2)n1 (stereo not drawn)	> 100	> 100	> 100	> 100	> 100		> 100	> 100	> 100						
CC12CC(C/C1=N/O)C(C)(C)C2 (stereo not drawn)	> 100	> 100	> 100		> 100	> 100	> 100	> 100	> 100						
C=C[C@@](C)(/C=C/c1ccc(O)cc1)CCC=C(C)C			35.4	32.3	35.7	34.7	32.3		32.8	31					
[N-]=[N+]=C(C(=O)C(=[N+]=[N-])C(=O)c1ccccc1)C(=O)c1ccccc1	> 100	> 100		> 100	> 100	> 100	> 100	> 100	> 100	> 100					
COc1cccc(CN(C(=O)/C=C\Sc2ccccc2)C(C)(C)C)c1	> 100		> 100		> 100	> 100	> 100	> 100	> 100	> 100					
N#CCCC1(CCC#N)CCCCCCC(CCC#N)(CCC#N)C(O)C1O (stereo not drawn)	> 100	> 100	> 100		> 100	> 100	> 100		> 100	> 100					
CC(=O)Nc1ccc(C(=O)N2N=C(C)/C(=C/c3ccc(O)cc3)C2=O)cc1	> 100	> 100	> 100	> 100	> 100	> 100	> 100		> 100						

SMILES	TGI (786-0 renal) [µM]	TGI (MALME-3M melanoma) [µM]	TGI (NCI-H226 lung) [µM]	TGI (RPMI-8226 leukemia) [µM]	TGI (SK-MEL-28 melanoma) [µM]	TGI (SNB-19 CNS) [µM]	TGI (TK-10 renal) [µM]	TGI (UACC-62 melanoma) [µM]	TGI (HT29 colon) [µM]	TGI (NCI/ADR-RES ovarian) [µM]	GI50 (NCI-H226 lung) [µM]	GI50 (NCI/ADR-RES ovarian) [µM]	GI50 (SK-MEL-28 melanoma) [µM]	GI50 (TK-10 renal) [µM]	GI50 (UACC-62 melanoma) [µM]
OC12CCCCCC1(N1CCOCC1)c1ccccc12 (stereo not drawn)	> 100	> 100	> 100	> 100	> 100	> 100	> 100	> 100	> 100						
CC(=O)NC1=C(NCC(C)C)C(=O)c2ccccc2C1=O	31.9	34.2	29.5	> 100	37.2	> 100	40.9	34.7	> 100						
COC(=O)c1c(OC)cc2cc3c(c(O)c2c1C)C(=O)C1(O)C(=O)C=C(OC)C(OC(=O)CC(C)N)=C1C3=O (stereo not drawn)	> 100			39.7	> 100	> 100	> 100	> 100	43.7	> 100					
COC(=O)n1c(C[P+](c2ccccc2)(c2ccccc2)c2ccccc2)cc2ccccc21	12.8	17.1	5.95	14.7	15.7	10.8	9.12	16.3	11.8						
CCN(CC)CCCCC1CCN(CC(=O)N2c3ccccc3NC(=O)CC2C)CC1 (stereo not drawn)	> 100	> 100	> 100	> 100	> 100	> 100	> 100	> 100	> 100						
C/C(=C\Cc1cc(O)ccc1O)CCc1c(C)cc(O)c(C=O)c1C	62.6	53.8	78.5	> 100	54.7	> 100	> 100		48.6						
CCCCCCOc1ccc(C(=N)N(CCCC)CCCC)c2ccccc12			3.07		3.2		3.14	3.23		2.79	1.53	1.43	1.77	1.57	1.6
O=c1c2c(nc3n1CCC3)sc1c(O)c(Br)ccc12	37.4	34.4	73.2	53.6	34.8	> 100	60.5	35.8	33.1						
CC12CC(c3ccccc3O1)C(C(=O)Nc1cccc(F)c1)C(=O)N2 (stereo not drawn)	> 100	> 100		> 100	> 100	> 100		> 100	> 100	81.9					
COC(=O)CC(NC(=O)OCc1ccccc1)C(C(=O)OCc1ccccc1)C1(C)OCCO1 (stereo not drawn)	> 100	> 100	94.1	73.7	> 100	> 100	> 100	59.7	> 100						
CC1(C)COC(c2c(-c3ccccc3)noc2CS(=O)c2ccccc2)=N1 (stereo not drawn)	> 100	> 100	> 100	> 100	> 100	> 100	> 100	76.9	> 100						
COc1ccc(-c2c3ccccc3c(-c3ccc(OCCCCCBr)cc3)c3ccccc23)cc1		> 100	> 100	> 100	> 100	> 100	> 100	> 100	> 100						
O=[N+]([O-])c1ccc(NS(=O)(=O)C(F)(F)F)cc1	> 100		> 100		> 100	> 100	> 100	> 100	> 100	> 100					
O=C(CSc1nc2ccc(I)cc2c(=O)n1Cc1ccccc1)NN1C(=O)CCC1=O	> 100		84.6	> 100	> 100	> 100	> 100	> 100	> 100	> 100					
O=C(/C=C/c1ccco1)c1cccc(C(=O)/C=C/c2ccco2)n1	20.5	> 100	> 100		67.7	> 48.8	> 100	> 100	37.4	> 73.3					
Cc1cc2occ(-c3ccc(Cl)cc3)c2c(=O)o1	> 100	> 100	> 100	> 100	> 100	> 100	> 100	> 100	> 100						
COc1ccc(-c2nc(-c3cnccn3)n(C3OC(CO)C(O)C(O)C3O)n2)cc1 (stereo not drawn)	> 100			> 100	> 100	> 100	> 100	> 100	> 100	> 100					
CCOC1=C2NC(Cc3ccc(F)cc3)=NC2C(=O)c2ccccc21 (stereo not drawn)	47.8	55.8		37.8	67.8		> 100	63.3	58.7						
